Measured values taken from US20110178143A1, “THERAPEUTIC COMPOUNDS” (ALLERGAN, INC., priority 2007, published 2011).
Where two headings read alike, the source gives them in different places.

Legend:
alpha2C receptor = target: T1, alpha2C receptor (Homo sapiens, UniProt P18825); test: Receptor Selection and Amplification Technology (RSAT) assay, alpha 2C; format: cell-based; conditions: for Emax: RSAT, maximal effect relative to standard full agonist brimonidine (UK14304), read-out: Alpha 2C intrinsic activity (IA), in parentheses
T1 construct: expressed in transfected cells; host or cells: NIH-3T3 cells
T1 sequence (P18825 1-462): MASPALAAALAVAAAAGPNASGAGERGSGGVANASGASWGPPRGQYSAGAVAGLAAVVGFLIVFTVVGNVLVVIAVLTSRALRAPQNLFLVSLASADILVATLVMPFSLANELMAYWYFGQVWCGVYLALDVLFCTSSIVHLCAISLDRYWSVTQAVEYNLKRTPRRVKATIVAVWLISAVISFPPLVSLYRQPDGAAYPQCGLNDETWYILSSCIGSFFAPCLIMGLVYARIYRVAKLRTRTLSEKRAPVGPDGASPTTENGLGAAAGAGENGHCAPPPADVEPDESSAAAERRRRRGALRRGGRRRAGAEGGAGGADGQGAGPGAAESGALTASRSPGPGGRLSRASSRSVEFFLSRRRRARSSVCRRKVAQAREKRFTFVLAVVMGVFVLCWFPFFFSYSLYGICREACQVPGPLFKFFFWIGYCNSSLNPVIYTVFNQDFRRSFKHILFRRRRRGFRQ
Description: (§1) Receptor Selection and Amplification Technology (RSAT) Assay
(§2) The RSAT assay measures a receptor-mediated loss of contact inhibition that results in selective proliferation of receptor-containing cells in a mixed population of confluent cells. The increase in cell number is assessed with an appropriate transfected marker gene such as β-galactosidase, the activity of which can be easily measured in a 96-well format. Receptors that activate the G protein, Gq, elicit this response. Alpha2 receptors, which normally couple to Gi, activate the RSAT response when coexpressed with a hybrid Gq protein that has a Gi receptor recognition domain, called Gq/i5.
(§3) NIH-3T3 cells are plated at a density of 2×10^6 cells in 15 cm dishes and maintained in Dulbecco's modified Eagle's medium supplemented with 10% calf serum. One day later, cells are cotransfected by calcium phosphate precipitation with mammalian expression plasmids encoding p-SV-β-galactosidase (5-10 μg), receptor (1-2 μg) and G protein (1-2 μg). 40 μg salmon sperm DNA may also be included in the transfection mixture. Fresh media is added on the following day and 1-2 days later, cells are harvested and frozen in 50 assay aliquots. Cells are thawed and 100 μl added to 100 μl aliquots of various concentrations of drugs in triplicate in 96-well dishes. Incubations continue 72-96 hr at 37° C. After washing with phosphate-buffered saline, β-galactosidase enzyme activity is determined by adding 200 μl of the chromogenic substrate (consisting of 3.5 mM o-nitrophenyl-β-D-galactopyranoside and 0.5% nonidet P-40 in phosphate buffered saline), incubating overnight at 30° C. and measuring optical density at 420 nm. The absorbance is a measure of enzyme activity, which depends on cell number and reflects a receptor-mediated cell proliferation. The efficacy or intrinsic activity is calculated as a ratio of the maximal effect of the drug to the maximal effect of a standard full agonist for each receptor subtype. Brimonidine, also called UK14304, the chemical structure of which is shown below, is used as the standard agonist for the alpha2A, alpha2B and alpha2c receptors. The EC50 is the concentration at which the drug effect is half of its maximal effect.
(§4) EC50 values are nanomolar. ND stands for “not determinable” at concentrations less than 10 micromolar. IA stands for “intrinsic activity.”

alpha2B receptor = target: T2, alpha2B receptor (Homo sapiens, UniProt P18089); test: Receptor Selection and Amplification Technology (RSAT) assay, alpha 2B; format: cell-based; conditions: for Emax: read-out: Alpha 2B intrinsic activity (IA), in parentheses
T2 construct: expressed in transfected cells; host or cells: NIH-3T3 cells
T2 sequence (P18089 1-450): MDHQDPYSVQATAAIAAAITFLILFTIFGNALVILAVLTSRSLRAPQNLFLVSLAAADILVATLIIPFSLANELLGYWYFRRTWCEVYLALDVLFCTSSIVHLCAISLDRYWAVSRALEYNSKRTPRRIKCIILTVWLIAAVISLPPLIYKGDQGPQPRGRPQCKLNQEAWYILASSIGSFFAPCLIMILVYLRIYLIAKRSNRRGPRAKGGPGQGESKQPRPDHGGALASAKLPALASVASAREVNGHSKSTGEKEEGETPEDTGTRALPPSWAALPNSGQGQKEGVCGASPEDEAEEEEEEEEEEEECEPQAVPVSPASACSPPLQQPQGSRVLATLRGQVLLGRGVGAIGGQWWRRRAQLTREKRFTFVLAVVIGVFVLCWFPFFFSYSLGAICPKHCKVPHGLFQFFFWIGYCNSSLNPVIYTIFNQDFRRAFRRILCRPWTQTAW
Description: as §1, §2, §3, §4

alpha2A receptor = target: T3, alpha2A receptor (Homo sapiens, UniProt P08913); test: cell-based; conditions: for Emax: read-out: Alpha 2A intrinsic activity (IA), in parentheses
T3 sequence (P08913 1-465): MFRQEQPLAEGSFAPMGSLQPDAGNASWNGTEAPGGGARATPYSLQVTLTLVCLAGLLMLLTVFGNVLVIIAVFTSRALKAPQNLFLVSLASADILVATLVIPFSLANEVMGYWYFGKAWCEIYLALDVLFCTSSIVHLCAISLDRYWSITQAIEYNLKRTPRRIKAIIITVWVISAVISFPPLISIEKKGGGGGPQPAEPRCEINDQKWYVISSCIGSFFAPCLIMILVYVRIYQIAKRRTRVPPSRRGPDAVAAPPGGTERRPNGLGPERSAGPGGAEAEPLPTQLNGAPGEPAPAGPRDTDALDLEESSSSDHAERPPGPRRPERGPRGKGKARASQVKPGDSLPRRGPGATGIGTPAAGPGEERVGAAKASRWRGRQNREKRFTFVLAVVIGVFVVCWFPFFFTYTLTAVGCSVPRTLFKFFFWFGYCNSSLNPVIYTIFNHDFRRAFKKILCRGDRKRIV
Description: NIH-3T3 cells are plated at a density of 2×10^6 cells in 15 cm dishes and maintained in Dulbecco's modified Eagle's medium supplemented with 10% calf serum. One day later, cells are cotransfected by calcium phosphate precipitation with mammalian expression plasmids encoding p-SV-β-galactosidase (5-10 μg), receptor (1-2 μg) and G protein (1-2 μg). 40 μg salmon sperm DNA may also be included in the transfection mixture. Fresh media is added on the following day and 1-2 days later, cells are harvested and frozen in 50 assay aliquots. Cells are thawed and 100 μl added to 100 μl aliquots of various concentrations of drugs in triplicate in 96-well dishes. Incubations continue 72-96 hr at 37° C. After washing with phosphate-buffered saline, β-galactosidase enzyme activity is determined by adding 200 μl of the chromogenic substrate (consisting of 3.5 mM o-nitrophenyl-β-D-galactopyranoside and 0.5% nonidet P-40 in phosphate buffered saline), incubating overnight at 30° C. and measuring optical density at 420 nm. The absorbance is a measure of enzyme activity, which depends on cell number and reflects a receptor-mediated cell proliferation. The efficacy or intrinsic activity is calculated as a ratio of the maximal effect of the drug to the maximal effect of a standard full agonist for each receptor subtype. […] The EC50 is the concentration at which the drug effect is half of its maximal effect.

[1] = RSAT in transfected NIH-3T3 cells, nd = not determinable at concentrations less than 10 micromolar, read-out: Alpha 2C EC50
[2] = RSAT in transfected NIH-3T3 cells, nd = not determinable at concentrations less than 10 micromolar, read-out: Alpha 2B EC50

SMILES | EC50 (alpha2C receptor; [1]) [nM] | Emax (alpha2C receptor) [%] | EC50 (alpha2B receptor; [2]) [nM] | Emax (alpha2B receptor) [%] | EC50 (alpha2A receptor) [nM] | Emax (alpha2A receptor) [%] | EC50 (alpha2C receptor) [nM] | EC50 (alpha2B receptor) [nM]
CC1CC(NC2=NCCO2)c2ccccc21 (stereo not shown) | 19.8 | 50 | 2.2 | 112 | 7 | 25 |  | 
CC1CC(NC2=NCCS2)c2ccccc21 (stereo not shown) |  | 41 |  | 99 | 180 | 25 | 86 | 10
c1ccc2c(c1)CC(NC1=NCCN1)C2 |  | 5 | 61 | 36 |  | 5 |  | 
c1ccc2c(c1)CC[C@@H]2NC1=NCCN1 |  | 11 |  | 82 |  | 4 |  | 43
Cc1cccc2c1CC[C@@H]2NC1=NCCS1 | 23 | 96 | 3.4 | 138 | 143 | 57 |  | 
Brc1cccc2c1CCC2NC1=NCCN1 (stereo not shown) |  | 12 |  | 71 |  | 7 |  | 12.2
Cc1cccc2c1CCC2NC1=NCCN1 (stereo not shown) | 429 | 38 |  | 98 |  | 20 |  | 5.7
c1ccc2c(c1)CCC2NC1=NCCN1 (stereo not shown) | 207 | 46 |  | 93 |  | 3 |  | 17
Cc1cccc2c1CC[C@H]2NC1=NCCN1 |  | 11 |  | 106 |  | 11 |  | 33.4
Cc1ccc2c(c1)C(NC1=NCCN1)CC2 (stereo not shown) |  | 7 | 473 | 34 |  | 7 |  | 
c1ccc2c(c1)CCC2NC1=NCCS1 (stereo not shown) |  | 102 |  | 107 |  | 14 | 54 | 7.5
Cc1cccc2c1CC[C@@H]2NC1=NCCN1 |  | 62 |  | 125 |  | 16 | 82 | 4.5
